Experimental data reported in patent US20230416248A1, “COMPOUNDS AND USES THEREOF” (Foghorn Therapeutics Inc., priority 2020, published 2023).
Like-named read-outs stand apart in the source and are kept apart here. Values belong to the compound of their own block, whether it stands above or below them.

Columns and labels:
BRM = target: T1, BRM (Homo sapiens, UniProt P51531); assay: ATPase catalytic activity of BRM, ADP-Glo in vitro biochemical assay; conditions: for IC50: 30 nM BRM, 400 μM ATP; for Ratio* (BRG1 IC50 (μM) divided by BRM IC50 (μM)): selectivity ratio BRG1 IC50 / BRM IC50
T1 construct: made in house; host or cells: High Five insect cells
Procedure, shortened: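 Recombinant BRM (30 nM) hydrolysed 400 μM ATP with 20 nM salmon sperm DNA in pH 8 Tris buffer containing 20 mM MgCl2, 50 mM NaCl, 0.1% Tween-20 and 1 mM DTT, 1 h at room temperature. ADP formed was quantified by ADP-Glo luminescence.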

BRG-1 = target: T2, BRG-1 (Homo sapiens, UniProt P51532); assay: ATPase catalytic activity of BRG-1, ADP-Glo in vitro biochemical assay; conditions: 30 nM BRG-1, 400 μM ATP, read-out: BRG1 IC50
T2 construct: made in house; host or cells: High Five insect cells
Procedure, shortened: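 BRG-1 ATPase activity was measured in vitro by ADP-Glo. After the reaction, ADP-Glo Reagent depleted unconsumed ATP (40 min, room temperature), then Kinase Detection Reagent converted product ADP to ATP (60 min, room temperature), and luciferase luminescence was read.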

[1] = ATPase catalytic activity, ADP-Glo

T1 sequence (P51531 whole entry): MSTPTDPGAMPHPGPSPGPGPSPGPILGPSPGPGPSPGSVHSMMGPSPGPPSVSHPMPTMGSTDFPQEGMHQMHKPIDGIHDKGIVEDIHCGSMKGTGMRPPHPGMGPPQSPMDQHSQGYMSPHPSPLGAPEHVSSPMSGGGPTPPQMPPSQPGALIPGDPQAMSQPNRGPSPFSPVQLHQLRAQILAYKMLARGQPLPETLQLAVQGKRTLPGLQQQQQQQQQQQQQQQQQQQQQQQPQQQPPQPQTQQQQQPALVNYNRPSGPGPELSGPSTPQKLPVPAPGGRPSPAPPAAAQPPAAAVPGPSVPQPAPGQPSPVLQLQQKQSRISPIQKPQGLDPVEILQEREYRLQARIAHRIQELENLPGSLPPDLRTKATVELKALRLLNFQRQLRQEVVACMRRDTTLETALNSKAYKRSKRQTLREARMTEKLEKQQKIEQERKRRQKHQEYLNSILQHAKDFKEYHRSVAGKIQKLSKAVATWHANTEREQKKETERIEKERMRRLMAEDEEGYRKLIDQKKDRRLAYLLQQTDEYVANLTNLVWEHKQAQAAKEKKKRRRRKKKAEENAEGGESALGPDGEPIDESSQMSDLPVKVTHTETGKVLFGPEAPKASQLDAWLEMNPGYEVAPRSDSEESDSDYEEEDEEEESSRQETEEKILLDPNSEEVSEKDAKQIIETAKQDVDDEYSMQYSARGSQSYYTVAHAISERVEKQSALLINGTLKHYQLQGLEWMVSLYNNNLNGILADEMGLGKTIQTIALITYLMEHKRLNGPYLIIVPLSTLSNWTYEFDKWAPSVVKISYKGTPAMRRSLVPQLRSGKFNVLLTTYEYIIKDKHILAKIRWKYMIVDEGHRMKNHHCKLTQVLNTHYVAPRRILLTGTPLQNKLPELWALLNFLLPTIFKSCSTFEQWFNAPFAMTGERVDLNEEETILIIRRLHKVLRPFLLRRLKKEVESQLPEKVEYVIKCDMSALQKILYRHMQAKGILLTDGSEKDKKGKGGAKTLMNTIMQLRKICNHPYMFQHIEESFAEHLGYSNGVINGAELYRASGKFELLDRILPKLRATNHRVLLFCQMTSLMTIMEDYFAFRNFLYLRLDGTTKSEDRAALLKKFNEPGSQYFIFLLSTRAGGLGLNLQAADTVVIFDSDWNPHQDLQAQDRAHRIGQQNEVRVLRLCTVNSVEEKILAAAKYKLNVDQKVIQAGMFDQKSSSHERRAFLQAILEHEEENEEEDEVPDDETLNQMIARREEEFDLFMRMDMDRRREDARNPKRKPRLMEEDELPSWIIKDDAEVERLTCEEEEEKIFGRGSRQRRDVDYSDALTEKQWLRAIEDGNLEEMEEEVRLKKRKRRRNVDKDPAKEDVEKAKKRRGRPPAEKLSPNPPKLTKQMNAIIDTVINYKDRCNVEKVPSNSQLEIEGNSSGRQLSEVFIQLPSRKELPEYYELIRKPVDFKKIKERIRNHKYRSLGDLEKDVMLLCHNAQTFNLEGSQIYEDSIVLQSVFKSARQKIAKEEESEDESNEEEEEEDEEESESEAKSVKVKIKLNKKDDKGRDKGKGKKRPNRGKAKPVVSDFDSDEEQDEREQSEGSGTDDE
T2 sequence (P51532 whole entry): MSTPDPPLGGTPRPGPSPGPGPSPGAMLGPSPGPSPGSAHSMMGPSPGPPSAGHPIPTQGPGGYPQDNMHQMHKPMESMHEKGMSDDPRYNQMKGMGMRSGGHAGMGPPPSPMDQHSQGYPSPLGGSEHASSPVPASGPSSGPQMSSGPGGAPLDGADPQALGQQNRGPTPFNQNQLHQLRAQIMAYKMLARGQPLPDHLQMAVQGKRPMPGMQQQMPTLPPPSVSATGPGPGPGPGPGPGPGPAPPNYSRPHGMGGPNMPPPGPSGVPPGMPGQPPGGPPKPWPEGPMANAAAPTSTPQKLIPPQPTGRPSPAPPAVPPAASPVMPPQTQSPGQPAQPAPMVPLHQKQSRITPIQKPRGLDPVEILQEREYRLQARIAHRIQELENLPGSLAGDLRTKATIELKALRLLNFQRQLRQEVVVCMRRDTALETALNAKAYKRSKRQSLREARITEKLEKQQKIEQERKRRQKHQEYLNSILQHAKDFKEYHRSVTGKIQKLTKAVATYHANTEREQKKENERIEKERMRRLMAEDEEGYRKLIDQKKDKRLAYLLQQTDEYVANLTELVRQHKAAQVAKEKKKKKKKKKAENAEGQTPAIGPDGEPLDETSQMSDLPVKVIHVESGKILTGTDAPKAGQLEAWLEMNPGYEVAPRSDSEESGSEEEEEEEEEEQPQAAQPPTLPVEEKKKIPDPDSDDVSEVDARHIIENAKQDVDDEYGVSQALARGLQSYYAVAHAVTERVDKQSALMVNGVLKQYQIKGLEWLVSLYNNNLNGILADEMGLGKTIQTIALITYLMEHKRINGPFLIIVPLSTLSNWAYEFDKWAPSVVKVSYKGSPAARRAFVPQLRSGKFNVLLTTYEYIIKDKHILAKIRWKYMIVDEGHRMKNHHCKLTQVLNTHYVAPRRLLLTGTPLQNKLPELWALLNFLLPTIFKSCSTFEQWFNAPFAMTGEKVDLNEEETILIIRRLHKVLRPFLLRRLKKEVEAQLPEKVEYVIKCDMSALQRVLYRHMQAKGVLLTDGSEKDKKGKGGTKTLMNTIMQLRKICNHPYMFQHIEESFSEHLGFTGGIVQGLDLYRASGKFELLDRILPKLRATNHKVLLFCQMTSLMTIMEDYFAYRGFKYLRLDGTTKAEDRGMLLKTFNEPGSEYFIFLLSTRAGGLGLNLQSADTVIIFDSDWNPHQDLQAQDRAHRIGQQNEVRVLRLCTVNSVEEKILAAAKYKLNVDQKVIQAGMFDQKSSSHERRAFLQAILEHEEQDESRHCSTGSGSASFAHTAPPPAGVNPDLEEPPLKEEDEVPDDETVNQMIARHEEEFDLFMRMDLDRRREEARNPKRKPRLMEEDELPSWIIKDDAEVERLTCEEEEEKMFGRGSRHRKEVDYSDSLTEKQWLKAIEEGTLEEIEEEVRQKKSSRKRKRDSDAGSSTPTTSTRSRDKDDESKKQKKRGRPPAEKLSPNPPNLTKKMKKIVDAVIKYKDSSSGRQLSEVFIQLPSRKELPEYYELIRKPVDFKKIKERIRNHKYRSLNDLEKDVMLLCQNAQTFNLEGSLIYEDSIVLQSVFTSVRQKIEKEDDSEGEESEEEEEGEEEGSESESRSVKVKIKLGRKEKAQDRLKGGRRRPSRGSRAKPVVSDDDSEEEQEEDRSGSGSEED

SMILES: CCc1cc(C(=O)NCc2cc3nc(-c4cccc(N5C[C@@H](C)O[C@@H](C)C5)n4)ccc3cn2)cc2c1COCCS2(=O)=O [Compound 59]
IC50 (BRM; ADP-Glo ATPase assay): 73 nM
Ratio* (BRG1 IC50 (μM) divided by BRM IC50 (μM)) (BRM): 10.68
IC50 (BRG-1; ADP-Glo ATPase assay): 780 nM

SMILES: CO[C@H]1CN(c2cccc(-c3ccc4cnc(CNC(=O)c5ccc6c(c5)S(=O)(=O)CCOC6)cc4n3)n2)C[C@@H]1F [Compound 339]
IC50 (BRM; [1]): 9.6 nM
Ratio* (BRM; ratio of BRG1 IC50 to BRM IC50): 8.89
IC50 (BRG-1; [1]): 85.8 nM

SMILES: C[C@@H]1CN(c2cccc(-c3ccc4cnc(CNC(=O)c5ccc(Cl)c(S(C)(=O)=O)c5)cc4n3)n2)C[C@H](C)O1 [Compound 213]
IC50 (BRM; ADP-Glo ATPase assay): 9.5 nM
Ratio* (BRG1 IC50 (μM) divided by BRM IC50 (μM)) (BRM): 13.94
IC50 (BRG-1; ADP-Glo ATPase assay): 132 nM

SMILES: Cc1cnc2c(n1)CCCN2c1ccc2cnc(CNC(=O)c3ccc4c(c3)S(=O)(=O)CCOC4)cc2n1 [Compound 440]
IC50 (BRM; [1]): 32.3 nM
Ratio* (BRM; ratio of BRG1 IC50 to BRM IC50): 14.01
IC50 (BRG-1; [1]): 453 nM

SMILES: CS(=O)(=O)c1cc(C(=O)NCc2cc3nc(-c4cccc(N5CC[C@@H]6COC[C@@H]6C5)n4)ccc3cn2)ccc1C(F)F [Compound 96]
IC50 (BRM; ADP-Glo ATPase assay): 49.7 nM
Ratio* (BRG1 IC50 (μM) divided by BRM IC50 (μM)) (BRM): 14.09
IC50 (BRG-1; ADP-Glo ATPase assay): 700 nM

SMILES: O=C(NCc1cc2nc(-c3cccc(N4CCC(F)CC4)n3)ccc2cn1)c1ccc2c(c1)S(=O)(=O)CCOC2 [Compound 186]
IC50 (BRM; ADP-Glo ATPase assay): 22.1 nM
Ratio* (BRG1 IC50 (μM) divided by BRM IC50 (μM)) (BRM): 11.50
IC50 (BRG-1; ADP-Glo ATPase assay): 254 nM

SMILES: Cc1ccc(C(=O)NCc2cc3nc(-c4cncc(C5CC5)n4)ccc3cn2)cc1S(=O)(=O)C(C)C [Compound 279]
IC50 (BRM; ADP-Glo ATPase assay): 529 nM
Ratio* (BRG1 IC50 (μM) divided by BRM IC50 (μM)) (BRM): 9.45
IC50 (BRG-1; ADP-Glo ATPase assay): 5000 nM

SMILES: Cc1cnc2c(c1)CCCN2c1ccc2cnc(CNC(=O)c3ccc4c(c3)S(=O)(=O)CCCO4)cc2n1 [Compound 514]
IC50 (BRM; [1]): 58.9 nM
Ratio* (BRM; ratio of BRG1 IC50 to BRM IC50): 7.89
IC50 (BRG-1; [1]): 465 nM

SMILES: C[C@@H]1CN(c2cccc(-c3ccc4cnc(CNC(=O)c5ccc6c(c5)S(=O)(=O)CC[C@@H](C5CC5)O6)cc4n3)n2)C[C@H](C)O1 [Compound 433]
IC50 (BRM; [1]): 331 nM
Ratio* (BRM; ratio of BRG1 IC50 to BRM IC50): 13.59
IC50 (BRG-1; [1]): 4500 nM

SMILES: COCCOc1cccc(-c2ccc3cnc(CNC(=O)c4ccc5c(c4)S(=O)(=O)CCOC5)cc3n2)c1 [Compound 135]
IC50 (BRM; ADP-Glo ATPase assay): 112 nM
Ratio* (BRG1 IC50 (μM) divided by BRM IC50 (μM)) (BRM): 9.48
IC50 (BRG-1; ADP-Glo ATPase assay): 1060 nM

SMILES: CO[C@@H]1CCN(c2cccc(-c3ccc4cnc(CNC(=O)c5ccc6c(c5)S(=O)(=O)CCOC6)cc4n3)n2)C[C@@H]1C [Compound 438]
IC50 (BRM; [1]): 31.8 nM
Ratio* (BRM; ratio of BRG1 IC50 to BRM IC50): 11.23
IC50 (BRG-1; [1]): 357 nM

SMILES: Cc1cc2c(-c3ccc4cnc(CNC(=O)c5ccc6c(c5)S(=O)(=O)CCOC6)cc4n3)ccnc2n1C [Compound 146]
IC50 (BRM; ADP-Glo ATPase assay): 15.3 nM
Ratio* (BRG1 IC50 (μM) divided by BRM IC50 (μM)) (BRM): 12.92
IC50 (BRG-1; ADP-Glo ATPase assay): 197 nM

Other lines, results leading:

IC50 (BRM; [1]): 76.3 nM
Ratio* (BRM; ratio of BRG1 IC50 to BRM IC50): 10.42
IC50 (BRG-1; [1]): 795 nM
SMILES: COc1cc2c(nc1C1CC1)N(c1ccc3cnc(CNC(=O)c4ccc5c(c4)S(=O)(=O)CCOC5)cc3n1)CCC2 [Compound 683]

IC50 (BRM; ADP-Glo ATPase assay): 27.9 nM
Ratio* (BRM; ratio BRG1 IC50 / BRM IC50): 25.53
IC50 (BRG-1; ADP-Glo ATPase assay): 713 nM
SMILES: O=C(NCc1cc2nc(N3CCOc4cc(F)c(C(F)F)nc43)ccc2cn1)c1ccc2c(c1)S(=O)(=O)CCOC2 [Compound 781]

IC50 (BRM; ADP-Glo ATPase assay): 44.6 nM
Ratio* (BRM; ratio BRG1 IC50 / BRM IC50): 42.98
IC50 (BRG-1; ADP-Glo ATPase assay): 1920 nM
SMILES: O=C(NCc1cc2cc(N3CCOc4ccc(C5CC5)nc43)ccc2cn1)c1ccc2c(c1)S(=O)(=O)CCOC2 [Compound 729]

IC50 (BRM; ADP-Glo ATPase assay): 7.4 nM
Ratio* (BRM; ratio BRG1 IC50 / BRM IC50): 5.90
IC50 (BRG-1; ADP-Glo ATPase assay): 43.8 nM
SMILES: O=C(NCc1cc2cc(N3CCOc4cc(N5CCOCC5)cnc43)ccc2cn1)c1ccc2c(c1)S(=O)(=O)CCOC2 [Compound 798]

IC50 (BRM; ADP-Glo ATPase assay): 664 nM
Ratio* (BRM; ratio BRG1 IC50 / BRM IC50): 6.87
IC50 (BRG-1; ADP-Glo ATPase assay): 4560 nM
SMILES: COc1ccc(-c2ccc3cnc(CNC(=O)c4ccc5c(c4)S(=O)(=O)CCOC5)cc3n2)nc1 [Compound 850]

IC50 (BRM; ADP-Glo ATPase assay): 8.4 nM
Ratio* (BRM; ratio BRG1 IC50 / BRM IC50): 3.16
IC50 (BRG-1; ADP-Glo ATPase assay): 26.4 nM
SMILES: C[C@@H]1CN(c2cccc(-c3ccc4cnc(CNC(=O)c5cnc6c(c5)S(=O)(=O)[C@@H](C)COC6)cc4c3)n2)C[C@H](C)O1 [Compound 769]

IC50 (BRM; ADP-Glo ATPase assay): 432 nM
Ratio* (BRM; ratio BRG1 IC50 / BRM IC50): 9.13
IC50 (BRG-1; ADP-Glo ATPase assay): 3940 nM
SMILES: O=C(NCc1cc2nc(N3CCn4ncc(C5CC5)c4C3)ccc2cn1)c1ccc2c(c1)S(=O)(=O)CCOC2 [Compound 744]

IC50 (BRM; ADP-Glo ATPase assay): 25.5 nM
Ratio* (BRM; ratio BRG1 IC50 / BRM IC50): 26.04
IC50 (BRG-1; ADP-Glo ATPase assay): 663 nM
SMILES: O=C(NCc1cc2cc(N3CCOc4ccc(C(F)F)nc43)ccc2cn1)c1ccc2c(c1)S(=O)(=O)CCOC2 [Compound 799]

IC50 (BRM; [1]): 5.4 nM
Ratio* (BRM; ratio of BRG1 IC50 to BRM IC50): 15.34
IC50 (BRG-1; [1]): 82.3 nM
SMILES: C[C@H]1CN(c2cccc(-c3ccc4cnc(CNC(=O)c5ccc(Cl)c(S(C)(=O)=O)c5)cc4n3)n2)CC[C@@H]1O [Compound 575]
